The source of these data is publication PMC4552634, “A New Set of Chemical Starting Points with Plasmodium falciparum Transmission-Blocking Potential for Antimalarial Drug Discovery” (PLoS ONE, 2015).

Read-outs that look alike come from different tables or passages of the source.

One data set deals with HepG2 cells. Kind of data set: Cytotoxicity in HepG2 cells (intracellular ATP, ATPlite, 48 h). Type of data set: cell-based, human. The conditions noted are these: HepG2 cells; IC50 per ratio column head; unit inferred. Background: ATP-based viability assays read luminescence as a measure of living cells.
For data set [1], the system named is P. falciparum asexual stages. To be noted: asexual stages; TCAMS data; read-out: IC50 asexual; cited from earlier work.
Data set [2] deals with P. falciparum stage V gametocytes. Put plainly: Gametocytocidal ATP bioluminescence assay (single point 5 μM and 1 μM, dose-response). Type of data set: cell-based, Plasmodium falciparum. The conditions noted are these: for Ratio IC50 HepG2/IC50 P. falciparum: IC50 HepG2 divided by IC50 P. falciparum gametocytes.
Procedure: Purified stage IV-V gametocytes were obtained as previously described [10]. Single point ATP bioluminescence assay and dose–response of positive hits was determined in accordance with the previously published protocol [10].
[3] abbreviates: P. falciparum gametocytes, average, read-out: IC50 Pf Gametocytes average, IC50 (µM) average.
[4] abbreviates: sexual stages (gametocytes), dose-response, read-out: IC50 sexual.

A word on the IC50: it is the concentration needed to halve the response being measured. On to `CSc1ccc2ccccc2c1CCNCCCCNCCc1c(SC)ccc2ccccc12` [TCMDC-137763], for which the IC50 was 1650 nM in the data set with HepG2 cells, 408 nM in data set [1] and 0.23 µM in data set [2] (setting [3]). Also, in data set [2], the “Ratio IC50 HepG2/IC50 P. falciparum” value was determined as 7.

As for `CCOc1ccc2ccccc2c1CNCCCCCCNCc1c(OCC)ccc2ccccc12` [TCMDC-137791], the IC50 in the data set on HepG2 cells is 1750 nM; in data set [1], 576 nM; in data set [2] (setting [3]) it was 0.7 µM. For the same molecule, the “Ratio IC50 HepG2/IC50 P. falciparum” value in data set [2] was determined as 2.5.

As to `COc1cc2ccccc2c(CNCCCCCCNCc2c(OC)c(OC)cc3ccccc23)c1OC` [TCMDC-137795], the IC50 was 4700 nM with HepG2 cells, 1110 nM in data set [1], 1.05 µM in data set [2] (setting [3]) and 1.04 µM in data set [2] (setting [4]). In addition, in data set [2], the “Ratio IC50 HepG2/IC50 P. falciparum” value is 4.5.

Take `COc1ccc2ccc(OC)c(CNCCCCCCNCc3c(OC)ccc4ccc(OC)cc34)c2c1` [TCMDC-137796]: the IC50 in the data set with HepG2 cells was 3400 nM; in data set [1], 699 nM; in data set [2] (setting [3]), 0.29 µM; in data set [2] (setting [4]), 0.285 µM. Moreover, in data set [2], the “Ratio IC50 HepG2/IC50 P. falciparum” value was 12.

Take `COc1ccc2cc(CNCCCCCCNCc3ccc4cc(OC)ccc4c3)ccc2c1` [TCMDC-137797]: the IC50 was 3000 nM in the data set on HepG2 cells, 624 nM in data set [1] and 0.67 µM in data set [2] (setting [3]). Moreover, the “Ratio IC50 HepG2/IC50 P. falciparum” value in data set [2] worked out at 4.48.

`FC(F)(F)COc1ccc2ccccc2c1CNCCCCCCNCc1c(OCC(F)(F)F)ccc2ccccc12` [TCMDC-137816]: the results for the IC50 (in the data set with HepG2 cells; in data set [1]; in data set [2] (setting [3])) were 3040 nM, 352 nM and 0.37 µM, respectively. For the same molecule, in data set [2], the “Ratio IC50 HepG2/IC50 P. falciparum” value turned out to be 8.

As for `COc1ccc2c(c1CNCCCCCCNCc1c(OC)ccc3c1CCCC3)CCCC2` [TCMDC-137817], the IC50 in the data set on HepG2 cells was 3830 nM; in data set [1], 907 nM; in data set [2] (setting [3]) it was 0.42 µM. Further, the “Ratio IC50 HepG2/IC50 P. falciparum” value in data set [2] came out at 9.

`COc1c(OC)c(OC)c2ccccc2c1CNCCCCCCNCc1c(OC)c(OC)c(OC)c2ccccc12` [TCMDC-137827]: the IC50 is 3200 nM in the data set on HepG2 cells, 759 nM in data set [1], 1.15 µM in data set [2] (setting [3]) and 1.15 µM in data set [2] (setting [4]). Besides, the “Ratio IC50 HepG2/IC50 P. falciparum” value in data set [2] is recorded as 2.79.

As to `C#CCCOc1ccc2ccccc2c1CNCCCCCCNCc1c(OCCC#C)ccc2ccccc12` [TCMDC-137832], the IC50 in the data set with HepG2 cells is 5500 nM; in data set [1] it was 811 nM; in data set [2] (setting [3]), 0.41 µM; in data set [2] (setting [4]) it was 0.405 µM. Besides, the “Ratio IC50 HepG2/IC50 P. falciparum” value in data set [2] is recorded as 14.

Turning to `C#CCOc1ccc2ccccc2c1CNCCCCCCNCc1c(OCC#C)ccc2ccccc12` [TCMDC-137838], the IC50 in the data set with HepG2 cells is 3190 nM; in data set [1], 780 nM; in data set [2] (setting [3]), 0.5 µM. In data set [2], the “Ratio IC50 HepG2/IC50 P. falciparum” value came out at 6.38.

Turning to `COc1cc2ccccc2c(OC)c1CCNCCCCNCCc1c(OC)cc2ccccc2c1OC` [TCMDC-137842], the IC50 was 3200 nM in the data set with HepG2 cells, 891 nM in data set [1], 0.31 µM in data set [2] (setting [3]) and 0.305 µM in data set [2] (setting [4]). Also, the “Ratio IC50 HepG2/IC50 P. falciparum” value in data set [2] came to 10.

For the molecule `COc1cc2ccccc2c(OC)c1CNCCCCCCNCc1c(OC)cc2ccccc2c1OC` [TCMDC-137843], the IC50 is 4250 nM in the data set on HepG2 cells, 988 nM in data set [1], 0.32 µM in data set [2] (setting [3]) and 0.319 µM in data set [2] (setting [4]). For the same molecule, the “Ratio IC50 HepG2/IC50 P. falciparum” value in data set [2] is given as 13.

For `CCCCOc1cc(OC)c2ccccc2c1CCNCCCCNCCc1c(OCCCC)cc(OC)c2ccccc12` [TCMDC-137845], the IC50 with HepG2 cells is 3000 nM; in data set [1] it was 1050 nM; in data set [2] (setting [3]), 0.5 µM. Also, the “Ratio IC50 HepG2/IC50 P. falciparum” value in data set [2] turned out to be 6.

Regarding `CCCCOc1c(CCNCCCCNCCc2cc(OC)c3ccccc3c2OCCCC)cc(OC)c2ccccc12` [TCMDC-137848], the values for the IC50 (with HepG2 cells; in data set [1]; in data set [2] (setting [3])) were 3100 nM, 925 nM and 0.08 µM, respectively. Besides, the “Ratio IC50 HepG2/IC50 P. falciparum” value in data set [2] is reported as 39.
